# Measurements taken from patent US7960377B2 (priority 2008, dated 2011).
# Like-named read-outs stand apart in the source and are kept apart here.
# How the values were obtained:
# Test in all cases: cell-based
# human CB2 receptor = human CB2 receptor (Homo sapiens, UniProt P34972); assay type: cell-based
# human CB1 receptor = human CB1 receptor (Homo sapiens, UniProt P21554)
# rat CB2 receptor = target: T1, rat CB2 receptor (Rattus norvegicus, UniProt Q9QZN9); assay type: cell-based
# T1 sequence (Q9QZN9 1-360): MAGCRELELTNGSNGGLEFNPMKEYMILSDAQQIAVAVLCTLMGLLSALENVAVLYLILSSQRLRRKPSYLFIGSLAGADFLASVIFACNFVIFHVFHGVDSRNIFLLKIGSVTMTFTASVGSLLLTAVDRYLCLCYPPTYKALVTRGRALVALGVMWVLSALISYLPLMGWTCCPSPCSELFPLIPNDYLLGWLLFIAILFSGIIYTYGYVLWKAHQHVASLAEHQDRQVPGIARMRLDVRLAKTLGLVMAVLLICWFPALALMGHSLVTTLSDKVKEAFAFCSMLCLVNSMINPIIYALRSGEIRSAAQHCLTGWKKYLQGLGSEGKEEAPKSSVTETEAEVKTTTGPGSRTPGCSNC
# [1] = change in intracellular cAMP, CHO-K1 hCB2 cells, class AR, read-out: EC50 values for human CB2 receptor
# [2] = asterisk at the compound number
# human CB1 receptor, sequence (P21554 whole entry): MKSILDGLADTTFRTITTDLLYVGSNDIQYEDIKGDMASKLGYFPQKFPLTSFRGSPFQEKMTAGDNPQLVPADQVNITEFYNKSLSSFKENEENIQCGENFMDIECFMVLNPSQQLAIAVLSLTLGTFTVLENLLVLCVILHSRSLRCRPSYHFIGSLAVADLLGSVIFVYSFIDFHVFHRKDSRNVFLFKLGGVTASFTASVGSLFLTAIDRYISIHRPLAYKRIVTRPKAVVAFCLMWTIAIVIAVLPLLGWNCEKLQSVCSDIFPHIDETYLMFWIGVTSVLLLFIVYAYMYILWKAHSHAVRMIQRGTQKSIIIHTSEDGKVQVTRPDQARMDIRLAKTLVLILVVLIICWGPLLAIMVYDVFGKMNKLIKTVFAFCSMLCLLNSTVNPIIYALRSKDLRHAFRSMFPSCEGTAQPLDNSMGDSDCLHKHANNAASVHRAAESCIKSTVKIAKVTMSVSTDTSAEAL
# human CB2 receptor, sequence (P34972 whole entry): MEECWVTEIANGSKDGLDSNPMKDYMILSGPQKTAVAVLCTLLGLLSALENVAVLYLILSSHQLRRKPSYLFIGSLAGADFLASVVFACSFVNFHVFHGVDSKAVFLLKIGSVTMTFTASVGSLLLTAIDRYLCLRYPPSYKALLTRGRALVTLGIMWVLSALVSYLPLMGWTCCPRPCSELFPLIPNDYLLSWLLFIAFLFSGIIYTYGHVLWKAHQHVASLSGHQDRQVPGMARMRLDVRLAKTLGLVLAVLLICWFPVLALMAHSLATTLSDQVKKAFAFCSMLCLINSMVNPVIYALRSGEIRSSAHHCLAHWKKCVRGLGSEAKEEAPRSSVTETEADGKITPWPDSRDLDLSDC
smiles,measurement,setting,value
"CCN(CC)C(=O)c1cnc2c(c1)N(S(=O)(=O)c1cccnc1)CCO2 [Example 18, N,N-diethyl-1-(pyridin-3-ylsulfonyl)-2,3-dihydro-1H-pyrido[2,3-b][1,4]oxazine-7-carboxamide]",EC50,human CB2 receptor; [1],> 30 µM
same,EC50,human CB1 receptor,> 30 µM
"COCCCNC(=O)c1cnc2c(c1)N(S(=O)(=O)c1cccnc1)CCO2 [Example 19, N-(3-methoxypropyl)-1-(pyridin-3-ylsulfonyl)-2,3-dihydro-1H-pyrido[2,3-b][1,4]oxazine-7-carboxamide]",EC50,human CB2 receptor; [1],> 30 µM
same,EC50,human CB1 receptor,> 30 µM
"Cn1cnc(S(=O)(=O)N2CCOc3ncc(C(=O)NC(C)(C)C)cc32)c1 [Example 30, N-tert-butyl-1-(1-methyl-1H-imidazol-4-ylsulfonyl)-2,3-dihydro-1H-pyrido-[2,3-b][1,4]oxazine-7-carboxamide]",EC50,human CB2 receptor; [1],> 30 µM
same,EC50,human CB1 receptor,> 30 µM
"Cn1cnc(S(=O)(=O)N2CCOc3ncc(C(=O)NC4CCCC4)cc32)c1 [Example 31, N-cyclopentyl-1-(1-methyl-1H-imidazol-4-ylsulfonyl)-2,3-dihydro-1H-pyrido[2,3-b][1,4] oxazine-7-carboxamide]",EC50,human CB2 receptor; [1],> 30 µM
same,EC50,human CB1 receptor,> 30 µM
"CCN(CCN(C)C)C(=O)c1cnc2c(c1)N(S(=O)(=O)c1ccc(C(F)(F)F)cc1)CCO2 [Example 38, N-(2-(dimethylamino)-ethyl)-N-ethyl-1-(4-(trifluoromethyl)phenylsulf-onyl)-2,3-dihydro-1H-pyrido[2,3-b][1,4]oxazine-7-carboxamide]",EC50,human CB2 receptor; [1],> 30 µM
same,EC50,human CB1 receptor,> 30 µM
"CC(C)(C)NC(=O)c1cnc2c(c1)N(S(=O)(=O)c1cc(Cl)cc(Cl)c1)CCO2 [Example 53, N-tert-butyl-1-(3,5-dichlorophenylsulfonyl)-2,3-dihydro-1H-pyrido[2,3-b][1,4]oxazine-7-carboxamide]",EC50,human CB2 receptor,> 30 µM
same,EC50,human CB1 receptor,> 30 µM
"CC(C)(C)NC(=O)c1cnc2c(c1)N(S(=O)(=O)Cc1ccc(C(F)(F)F)cc1)CCO2 [Example 63, N-tert-butyl-1-(4-(trifluoromethyl)benzylsulf-onyl)-2,3-dihydro-1H-pyrido[2,3-b][1,4]oxazine-7-carboxamide]",EC50,human CB2 receptor; [1],> 30 µM
same,EC50,human CB1 receptor,> 30 µM
"CCS(=O)(=O)N1CCOc2ncc(C(=O)NC(C)(C)C)cc21 [Example 80, N-tert-butyl-1-(ethylsulfonyl)-2,3-dihydro-1H-pyrido[2,3-b][1,4]oxazine-7-carboxamide]",EC50,human CB2 receptor,> 30 µM
same,EC50,human CB1 receptor,> 30 µM
"Cc1cccc(CS(=O)(=O)N2CCOc3ncc(C(=O)NC(C)(C)C)cc32)c1 [Example 81, N-tert-butyl-1-(3-methylbenzylsulfonyl)-2,3-dihydro-1H-pyrido[2,3-b][1,4]oxazine-7-carboxamide]",EC50,human CB2 receptor; [1],> 30 µM
same,EC50,human CB1 receptor,> 30 µM
"CC(C)(C)NC(=O)c1cnc2c(c1)N(S(=O)(=O)c1ccccc1OC(F)(F)F)CCO2 [Example 84, N-tert-butyl-1-(2-(trifluoromethoxy)phenyl-sulfonyl)-2,3-dihydro-1H-pyrido[2,3-b][1,4]oxazine-7-carboxamide]",EC50,human CB2 receptor; [1],> 30 µM
same,EC50,human CB1 receptor,> 30 µM
"CC(C)(C)NC(=O)c1cnc2c(c1)N(S(=O)(=O)c1cccc3ccccc13)CCO2 [Example 87, N-tert-butyl-1-(naphthalen-1-ylsulfonyl)-2,3-dihydro-1H-pyrido[2,3-b][1,4]oxazine-7-carboxamide]",EC50,human CB2 receptor,> 30 µM
same,EC50,human CB1 receptor,> 30 µM
"CC(C)(C)NC(=O)c1cnc2c(c1)N(S(=O)(=O)c1ccc3ccccc3c1)CCO2 [Example 88, N-tert-butyl-1-(naphthalen-2-ylsulfonyl)-2,3-dihydro-1H-pyrido[2,3-b][1,4]oxazine-7-carboxamide]",EC50,human CB2 receptor,> 30 µM
same,EC50,human CB1 receptor,> 30 µM
"Cc1cc(S(=O)(=O)N2CCOc3ncc(C(=O)NC(C)(C)C)cc32)c(C)s1 [Example 91, N-tert-butyl-1-(2,5-dimethylthiophen-3-ylsulfonyl)-2,3-dihydro-1H-pyrido[2,3-b][1,4]oxazine-7-carboxamide]",EC50,human CB2 receptor,> 30 µM
same,EC50,human CB1 receptor,> 30 µM
"O=C(NCCO)c1cnc2c(c1)N(S(=O)(=O)c1ccc(Cl)cc1F)CCO2 [Example 115, 1-(4-chloro-2-fluorophenylsulfonyl)-N-(2-hydroxyethyl)-2,3-dihydro-1H-pyrido[2,3-b][1,4]oxazine-7-carboxamide]",EC50,human CB2 receptor; [1],> 30 µM
same,EC50,human CB1 receptor,> 30 µM
O=C(c1cnc2c(c1)N(S(=O)(=O)c1ccc(Cl)c(Cl)c1)CCO2)N1CCN(c2ccccn2)CC1 [Example 117],EC50,human CB2 receptor,> 30 µM
same,"inverse agonist mark, human CB1 receptor",human CB1 receptor; [2],"11, 24, 25, 42, 43*, 67, 117*, 121, 124, 131, 132, 148, 150, 151,"
"CC1CCN(S(=O)(=O)N2CCOc3ncc(C(=O)NC(C)(C)C)cc32)CC1 [Example 170, N-tert-butyl-1-(4-methylpiperidin-1-ylsulfonyl)-2,3-dihydro-1H-pyrido[2,3-b][1,4]oxazine-7-carboxamide]",EC50,rat CB2 receptor,≤ 0.03 µM
same,EC50,human CB1 receptor,> 30 µM
"CCC(C)(C)NC(=O)c1cnc2c(c1)N(S(=O)(=O)N1CCC(C)CC1)CCO2 [Example 171, 1-(4-methylpiperidin-1-ylsulfonyl)-N-tert-pentyl-2,3-dihydro-1H-pyrido[2,3-b][1,4]oxazine-7-carboxamide]",EC50,rat CB2 receptor,≤ 0.03 µM
same,EC50,human CB1 receptor,> 30 µM
"CC1CCN(S(=O)(=O)N2CCOc3ncc(C(=O)NC(C)(C)CO)cc32)CC1 [Example 172, N-(1-hydroxy-2-methylpropan-2-yl)-1-(4-methylpiperidin-1-ylsulfonyl)-2,3-dihydro-1H-pyrido[2,3-b][1,4]oxazine-7-carboxamide]",EC50,rat CB2 receptor,≤ 0.03 µM
same,EC50,human CB1 receptor,> 30 µM
"CC(C)(C)NC(=O)c1cnc2c(c1)N(S(=O)(=O)NCc1ccccc1)CCO2 [Example 178, 1-(N-benzylsulfamoyl)-N-tert-butyl-2,3-dihydro-1H-pyrido[2,3-b][1,4]oxazine-7-carboxamide]",EC50,rat CB2 receptor,≤ 0.03 µM
same,EC50,human CB1 receptor,> 30 µM
"CC(C)CNS(=O)(=O)N1CCOc2ncc(C(=O)NC(C)(C)C)cc21 [Example 180, N-tert-butyl-1-(N-isobutylsulfamoyl)-2,3-dihydro-1H-pyrido[2,3-b][1,4]oxazine-7-carboxamide]",EC50,rat CB2 receptor,≤ 0.03 µM
same,EC50,human CB1 receptor,> 30 µM
"CC(C)CNS(=O)(=O)N1CCOc2ncc(C(=O)NCC(C)(C)CO)cc21 [Example 182, N-(3-hydroxy-2,2-dimethylpropyl)-1-(N-isobutylsulfamoyl)-2,3-dihydro-1H-pyrido[2,3-b][1,4]oxazine-7-carboxamide]",EC50,rat CB2 receptor,≤ 0.03 µM
same,EC50,human CB1 receptor,> 30 µM
"CC(C)(CO)NC(=O)c1cnc2c(c1)N(S(=O)(=O)N1CC(F)(F)C1)CCO2 [Example 195, 1-(3,3-difluoroazetidin-1-ylsulfonyl)-N-(1-hydroxy-2-methylpropan-2-yl)-2,3-dihydro-1H-pyrido[2,3-b][1,4]oxazine-7-carboxamide]",EC50,human CB2 receptor,> 30 µM
"C[C@@H]1CCC[C@H](C)N1C(=O)c1cnc2c(c1)N(S(=O)(=O)c1ccc(C(F)(F)F)cc1)CCO2 [Example 197, (cis-2,6-dimethylpiperidin-1-yl)(1-(4-(trifluoromethyl)phenylsulf-onyl)-2,3-dihydro-1H-pyrido[2,3-b][1,4]oxazin-7-yl)methanone]",EC50,rat CB2 receptor,≤ 0.03 µM
same,EC50,human CB1 receptor,> 30 µM
"O=C(NC1(CO)CCC1)c1cnc2c(c1)N(S(=O)(=O)c1ccc(Cl)c(Cl)c1)CCO2 [Example 209, 1-(3,4-dichlorophenylsulfonyl)-N-(1-(hydroxymethyl)cyclobutyl)-2,3-dihydro-1H-pyrido[2,3-b][1,4]oxazine-7-carboxamide]",EC50,rat CB2 receptor,≤ 0.03 µM
same,EC50,human CB1 receptor,> 30 µM
"CCc1noc(-c2cnc3c(c2)N(S(=O)(=O)c2ccccc2)CCO3)n1 [Example 210, 7-(3-ethyl-1,2,4-oxadiazol-5-yl)-1-(phenylsulfonyl)-2,3-dihydro-1H-pyrido[2,3-b][1,4]oxazine]",EC50,rat CB2 receptor,≤ 0.03 µM
same,EC50,human CB1 receptor,> 30 µM
"O=S(=O)(c1ccccc1)N1CCOc2ncc(-c3nnc(-c4ccccc4)o3)cc21 [Example 211, 7-(5-phenyl-1,3,4-oxadiazol-2-yl)-1-(phenylsulfonyl)-2,3-dihydro-1H-pyrido[2,3-b][1,4]oxazine]","inverse agonist mark, rat CB2 receptor",rat CB2 receptor; [2],"181, 188, 189, 190, 195, 200, 201, 202, 204, 211*, 214*, 220, 221,"
same,EC50,human CB1 receptor,> 30 µM
"O=C(NC1CCCC1)c1noc(-c2cnc3c(c2)N(S(=O)(=O)c2ccc(F)cc2)CCO3)n1 [Example 213, N-cyclopentyl-5-(1-(4-fluorophenylsulfonyl)-2,3-dihydro-1H-pyrido[2,3-b][1,4]oxazin-7-yl)-1,2,4-oxadiazole-3-carboxamide]","inverse agonist mark, human CB2 receptor",human CB2 receptor; [2],"175, 178, 179, 181, 198, 204, 205, 213*, 214, 215, 216, 219, 220,"
"CC1(C)N=C(c2cnc3c(c2)N(S(=O)(=O)c2ccc(C(F)(F)F)cc2)CCO3)NO1 [Example 223, 7-(5,5-dimethyl-2,5-dihydro-1,2,4-oxadiazol-3-yl)-1-(4-(trifluoromethyl)phenylsulfonyl)-2,3-dihydro-1H-pyrido[2,3-b][1,4]oxazine]",EC50,rat CB2 receptor,≤ 0.03 µM
same,EC50,human CB1 receptor,> 30 µM
"CC1(C)CN=C(c2cnc3c(c2)N(S(=O)(=O)c2ccc(C(F)(F)F)cc2)CCO3)NC1 [Example 225, 7-(5,5-dimethyl-1,4,5,6-tetrahydropyrimidin-2-yl)-1-(4-(trifluoromethyl)phenylsulfonyl)-2,3-dihydro-1H-pyrido[2,3-b][1,4]oxazine]",EC50,rat CB2 receptor,> 30 µM
same,EC50,human CB1 receptor,> 30 µM
"O=S(=O)(c1ccc(C(F)(F)F)cc1)N1CCOc2ncc(-c3ncc(-c4ccccc4)[nH]3)cc21 [Example 226, 7-(5-phenyl-1H-imidazol-2-yl)-1-(4-(trifluoromethyl)phenylsulfonyl)-2,3-dihydro-1H-pyrido[2,3-b][1,4]oxazine]",EC50,human CB2 receptor; [1],> 30 µM
